{"source": "the supplement of paper PMC10307832", "test_in_all_cases": "relative viability (nuclei count vs DMSO), 5 days (fraction); higher = more cells survive", "key": {"NCI-H727": {"system": "NCI-H727", "method_in_brief": "(§1)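 Lung cancer cell lines in 1536-well plates were dosed by pin tool the day after seeding, either with one drug alone or with a fixed anchor-drug dose plus five library-drug doses (not always all listed) in √10 steps. After 5 days, cells were fixed and their nuclei stained in one step (final 0.05% Triton X-100, 1% formaldehyde, 1 ug/ml Hoechst), then counted on 4× images. Relative viability is the nuclei count in treated wells divided by that in vehicle wells. Values are medians of duplicate plates.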"}, "NCI-H1650": {"system": "NCI-H1650", "method_in_brief": "as §1"}, "SK-LU-1": {"system": "SK-LU-1", "method_in_brief": "as §1"}, "LXF-289": {"system": "LXF-289", "method_in_brief": "as §1"}, "LCLC-97TM1": {"system": "LCLC-97TM1", "method_in_brief": "as §1"}, "HCC-827": {"system": "HCC-827", "method_in_brief": "as §1"}, "NCI-H322M": {"system": "NCI-H322M", "method_in_brief": "as §1"}, "NCI-H2405": {"system": "NCI-H2405", "method_in_brief": "as §1"}, "HCC-44": {"system": "HCC-44", "method_in_brief": "as §1"}, "NCI-H1437": {"system": "NCI-H1437", "method_in_brief": "as §1"}, "BEN": {"system": "BEN", "method_in_brief": "as §1"}, "HOP-62": {"system": "HOP-62", "method_in_brief": "as §1"}, "NCI-H3122": {"system": "NCI-H3122", "method_in_brief": "as §1"}, "NCI-H647": {"system": "NCI-H647", "method_in_brief": "as §1"}, "LCLC-103H": {"system": "LCLC-103H", "method_in_brief": "as §1"}, "NCI-H1944": {"system": "NCI-H1944", "method_in_brief": "as §1"}, "NCI-H2228": {"system": "NCI-H2228", "method_in_brief": "as §1"}, "201T": {"system": "201T", "method_in_brief": "as §1"}, "NCI-H2087": {"system": "NCI-H2087", "method_in_brief": "as §1"}, "RERF-LC-KJ": {"system": "RERF-LC-KJ", "method_in_brief": "as §1"}, "CAL-12T": {"system": "CAL-12T", "method_in_brief": "as §1"}}}
{"smiles": "O=C(O)c1ccc(-c2c[nH]c3ncc(-c4ccccc4)cc23)cc1C1CCCC1", "note": "+ C[C@@H](Oc1cc(-c2cnn(C3CCNCC3)c2)cnc1N)c1c(Cl)ccc(F)c1Cl [Crizotinib] (partner 1 µM)", "values": [{"measurement": "relative viability", "setting": "NCI-H727; first compound 0.04 µM", "value": 0.971}, {"measurement": "relative viability", "setting": "NCI-H727; first compound 0.1265 µM", "value": 0.894}, {"measurement": "relative viability", "setting": "NCI-H727; first compound 0.4 µM", "value": 0.738}, {"measurement": "relative viability", "setting": "NCI-H727; first compound 1.265 µM", "value": 0.805}, {"measurement": "relative viability", "setting": "NCI-H1650; first compound 0.04 µM", "value": 1.02}, {"measurement": "relative viability", "setting": "NCI-H1650; first compound 0.1265 µM", "value": 0.996}, {"measurement": "relative viability", "setting": "NCI-H1650; first compound 0.4 µM", "value": 0.917}, {"measurement": "relative viability", "setting": "NCI-H1650; first compound 1.265 µM", "value": 0.743}, {"measurement": "relative viability", "setting": "SK-LU-1; first compound 0.04 µM", "value": 0.927}, {"measurement": "relative viability", "setting": "SK-LU-1; first compound 0.1265 µM", "value": 0.901}, {"measurement": "relative viability", "setting": "SK-LU-1; first compound 0.4 µM", "value": 0.719}, {"measurement": "relative viability", "setting": "SK-LU-1; first compound 1.265 µM", "value": 0.682}, {"measurement": "relative viability", "setting": "LXF-289; first compound 0.04 µM", "value": 0.741}, {"measurement": "relative viability", "setting": "LXF-289; first compound 0.1265 µM", "value": 0.772}, {"measurement": "relative viability", "setting": "LXF-289; first compound 0.4 µM", "value": 0.594}, {"measurement": "relative viability", "setting": "LXF-289; first compound 1.265 µM", "value": 0.285}, {"measurement": "relative viability", "setting": "LCLC-97TM1; first compound 0.04 µM", "value": 0.376}, {"measurement": "relative viability", "setting": "LCLC-97TM1; first compound 0.1265 µM", "value": 0.329}, {"measurement": "relative viability", "setting": "LCLC-97TM1; first compound 0.4 µM", "value": 0.234}, {"measurement": "relative viability", "setting": "LCLC-97TM1; first compound 1.265 µM", "value": 0.326}, {"measurement": "relative viability", "setting": "HCC-827; first compound 0.04 µM", "value": 0.88}, {"measurement": "relative viability", "setting": "HCC-827; first compound 0.1265 µM", "value": 0.95}, {"measurement": "relative viability", "setting": "HCC-827; first compound 0.4 µM", "value": 0.897}, {"measurement": "relative viability", "setting": "HCC-827; first compound 1.265 µM", "value": 0.724}, {"measurement": "relative viability", "setting": "NCI-H322M; first compound 0.04 µM", "value": 0.943}, {"measurement": "relative viability", "setting": "NCI-H322M; first compound 0.1265 µM", "value": 0.918}, {"measurement": "relative viability", "setting": "NCI-H322M; first compound 0.4 µM", "value": 1.01}, {"measurement": "relative viability", "setting": "NCI-H322M; first compound 1.265 µM", "value": 0.839}, {"measurement": "relative viability", "setting": "NCI-H2405; first compound 0.04 µM", "value": 0.862}, {"measurement": "relative viability", "setting": "NCI-H2405; first compound 0.1265 µM", "value": 0.94}, {"measurement": "relative viability", "setting": "NCI-H2405; first compound 0.4 µM", "value": 0.841}, {"measurement": "relative viability", "setting": "NCI-H2405; first compound 1.265 µM", "value": 0.715}, {"measurement": "relative viability", "setting": "HCC-44; first compound 0.04 µM", "value": 0.764}, {"measurement": "relative viability", "setting": "HCC-44; first compound 0.1265 µM", "value": 0.823}, {"measurement": "relative viability", "setting": "HCC-44; first compound 0.4 µM", "value": 0.812}, {"measurement": "relative viability", "setting": "HCC-44; first compound 1.265 µM", "value": 0.577}, {"measurement": "relative viability", "setting": "NCI-H1437; first compound 0.04 µM", "value": 1.03}, {"measurement": "relative viability", "setting": "NCI-H1437; first compound 0.1265 µM", "value": 0.959}, {"measurement": "relative viability", "setting": "NCI-H1437; first compound 0.4 µM", "value": 0.874}, {"measurement": "relative viability", "setting": "NCI-H1437; first compound 1.265 µM", "value": 0.839}, {"measurement": "relative viability", "setting": "BEN; first compound 0.04 µM", "value": 0.89}, {"measurement": "relative viability", "setting": "BEN; first compound 0.1265 µM", "value": 0.996}, {"measurement": "relative viability", "setting": "BEN; first compound 0.4 µM", "value": 0.885}, {"measurement": "relative viability", "setting": "BEN; first compound 1.265 µM", "value": 0.774}, {"measurement": "relative viability", "setting": "HOP-62; first compound 0.04 µM", "value": 0.902}, {"measurement": "relative viability", "setting": "HOP-62; first compound 0.1265 µM", "value": 0.901}, {"measurement": "relative viability", "setting": "HOP-62; first compound 0.4 µM", "value": 0.904}, {"measurement": "relative viability", "setting": "HOP-62; first compound 1.265 µM", "value": 0.497}, {"measurement": "relative viability", "setting": "NCI-H3122; first compound 0.04 µM", "value": 0.261}, {"measurement": "relative viability", "setting": "NCI-H3122; first compound 0.1265 µM", "value": 0.245}, {"measurement": "relative viability", "setting": "NCI-H3122; first compound 0.4 µM", "value": 0.272}, {"measurement": "relative viability", "setting": "NCI-H3122; first compound 1.265 µM", "value": 0.319}, {"measurement": "relative viability", "setting": "NCI-H647; first compound 0.04 µM", "value": 1.01}, {"measurement": "relative viability", "setting": "NCI-H647; first compound 0.1265 µM", "value": 1.08}, {"measurement": "relative viability", "setting": "NCI-H647; first compound 0.4 µM", "value": 0.987}, {"measurement": "relative viability", "setting": "NCI-H647; first compound 1.265 µM", "value": 0.77}, {"measurement": "relative viability", "setting": "LCLC-103H; first compound 0.04 µM", "value": 0.997}, {"measurement": "relative viability", "setting": "LCLC-103H; first compound 0.1265 µM", "value": 1.05}, {"measurement": "relative viability", "setting": "LCLC-103H; first compound 0.4 µM", "value": 1.03}, {"measurement": "relative viability", "setting": "LCLC-103H; first compound 1.265 µM", "value": 1.04}, {"measurement": "relative viability", "setting": "NCI-H1944; first compound 0.04 µM", "value": 1.03}, {"measurement": "relative viability", "setting": "NCI-H1944; first compound 0.1265 µM", "value": 1.14}, {"measurement": "relative viability", "setting": "NCI-H1944; first compound 0.4 µM", "value": 1.08}, {"measurement": "relative viability", "setting": "NCI-H1944; first compound 1.265 µM", "value": 1.01}, {"measurement": "relative viability", "setting": "NCI-H2228; first compound 0.04 µM", "value": 0.62}, {"measurement": "relative viability", "setting": "NCI-H2228; first compound 0.1265 µM", "value": 0.556}, {"measurement": "relative viability", "setting": "NCI-H2228; first compound 0.4 µM", "value": 0.469}, {"measurement": "relative viability", "setting": "NCI-H2228; first compound 1.265 µM", "value": 0.292}, {"measurement": "relative viability", "setting": "201T; first compound 0.04 µM", "value": 1.06}, {"measurement": "relative viability", "setting": "201T; first compound 0.1265 µM", "value": 1.04}, {"measurement": "relative viability", "setting": "201T; first compound 0.4 µM", "value": 0.941}, {"measurement": "relative viability", "setting": "201T; first compound 1.265 µM", "value": 0.979}, {"measurement": "relative viability", "setting": "NCI-H2087; first compound 0.04 µM", "value": 0.853}, {"measurement": "relative viability", "setting": "NCI-H2087; first compound 0.1265 µM", "value": 0.75}, {"measurement": "relative viability", "setting": "NCI-H2087; first compound 0.4 µM", "value": 0.833}, {"measurement": "relative viability", "setting": "NCI-H2087; first compound 1.265 µM", "value": 0.723}, {"measurement": "relative viability", "setting": "RERF-LC-KJ; first compound 0.04 µM", "value": 0.795}, {"measurement": "relative viability", "setting": "RERF-LC-KJ; first compound 0.1265 µM", "value": 0.851}, {"measurement": "relative viability", "setting": "RERF-LC-KJ; first compound 0.4 µM", "value": 0.823}, {"measurement": "relative viability", "setting": "RERF-LC-KJ; first compound 1.265 µM", "value": 0.766}, {"measurement": "relative viability", "setting": "CAL-12T; first compound 0.04 µM", "value": 0.633}, {"measurement": "relative viability", "setting": "CAL-12T; first compound 0.1265 µM", "value": 0.755}, {"measurement": "relative viability", "setting": "CAL-12T; first compound 0.4 µM", "value": 0.701}, {"measurement": "relative viability", "setting": "CAL-12T; first compound 1.265 µM", "value": 0.528}]}
